Experimental data taken from patent US20080045546A1, “Tetradydro-Naphthalene And Urea Derivatives” (priority 2003, published 2008).

Tests used:
human VR1 = biological target: T1, human VR1 (Homo sapiens, UniProt Q8NER1); test: Capsaicin-induced Ca2+ influx in the human VR1-transfected CHO cell line (Assay 1); format: cell-based; settings: stimulation with 10 nM capsaicin; human VR1-CHOluc9aeq cells; read-out: activity class (IC50)
T1 construct: expressed in transfected cells
Source text: [Measurement of Capsaicin-induced Ca^2+ Influx in the Human VR1-transfected CHO Cell Line](Assay 1)
(1) Establishment of the Human VR1-CHOluc9aeq Cell Line
Human vanilloid receptor (hVR1) cDNA was cloned from libraries of axotomized dorsal root ganglia (WO 00/29577). The cloned hVR1 cDNA was constructed with pcDNA3 vector and transfected into a CHOluc9aeq cell line. The cell line contains aequorin and CRE-luciferase reporter genes as read-out signals. The transfectants were cloned by limiting dilution in selection medium (DMEM/F12 medium (Gibco BRL) supplemented with 10% FCS, 1.4 mM Sodium pyruvate, 20 mM HEPES, 0.15% Sodium bicarbonate, 100 U/ml penicillin, 100 μg/ml streptomycin, 2 mM glutamine, non-essential amino acids and 2 mg/ml G418). Ca^2+ influx was examined in the capsaicin-stimulated clones. A high responder clone was selected and used for further experiments in the project. The human VR1-CHOluc9aeq cells were maintained in the selection medium and passaged every 3-4 days at 1-2.5×10^5 cells/flask ([…]).
(2) Measurement of Ca^2+ Influx Using FDSS-3000
Human VR1-CHOluc9aeq cells were suspended in a culture medium which is the same as the selection medium except for G418 and seeded at a density of 1,000 cells per well into 384-well plates (black walled clear-base/Nalge Nunc International). Following the culture for 48 hrs the medium was changed to 2 μM Fluo-3 AM (Molecular Probes) and 0.02% Puronic F-127 in assay buffer (Hank's balanced salt solution (HBSS), 17 mM HEPES (pH7.4), 1 mM Probenecid, 0.1% BSA) and the cells were incubated for 60 min at 25° C. After washing twice with assay buffer the cells were incubated with a test compound or vehicle for 20 min at 25° C. Mobilization of cytoplasmic Ca^2+ was measured by FDSS-3000 (λex=488 nm, λem=540 nm/Hamamatsu Photonics) for 60 sec after the stimulation with 10 nM capsaicin. Integral R was calculated and compared with controls.

T1 sequence (Q8NER1 whole entry): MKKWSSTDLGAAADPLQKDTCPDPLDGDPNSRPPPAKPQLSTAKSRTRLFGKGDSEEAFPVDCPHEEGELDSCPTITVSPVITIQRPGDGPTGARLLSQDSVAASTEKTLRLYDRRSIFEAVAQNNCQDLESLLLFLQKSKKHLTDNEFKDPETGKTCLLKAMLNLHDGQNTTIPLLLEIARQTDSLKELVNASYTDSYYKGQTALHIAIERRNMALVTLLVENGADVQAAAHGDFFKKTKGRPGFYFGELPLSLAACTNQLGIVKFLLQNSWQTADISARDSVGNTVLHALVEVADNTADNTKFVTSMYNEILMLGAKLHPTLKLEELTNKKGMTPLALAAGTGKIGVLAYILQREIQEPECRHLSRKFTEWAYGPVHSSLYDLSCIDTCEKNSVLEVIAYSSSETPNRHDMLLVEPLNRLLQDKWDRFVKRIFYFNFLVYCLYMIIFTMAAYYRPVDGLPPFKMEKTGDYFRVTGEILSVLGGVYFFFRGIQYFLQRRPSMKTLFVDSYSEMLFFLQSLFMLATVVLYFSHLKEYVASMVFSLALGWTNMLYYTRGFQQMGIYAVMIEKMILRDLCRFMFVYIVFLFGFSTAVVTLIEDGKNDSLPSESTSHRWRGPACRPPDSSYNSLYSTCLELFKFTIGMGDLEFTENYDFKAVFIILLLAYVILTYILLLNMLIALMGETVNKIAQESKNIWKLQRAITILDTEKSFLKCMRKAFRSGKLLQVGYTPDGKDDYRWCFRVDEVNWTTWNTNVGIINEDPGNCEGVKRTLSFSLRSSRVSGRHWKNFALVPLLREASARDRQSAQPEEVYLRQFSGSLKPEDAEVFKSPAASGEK

melting point [°C]	IC50 (human VR1) [nM]	SMILES
209 to 211		O=C(Nc1ccc2c(c1)OCO2)Nc1cccc2c1CC(O)CC2 (stereo not drawn)
	< 100	CC(=O)OC1Cc2cccc(NC(=O)NCc3ccc(C(F)(F)F)cc3)c2C1 (stereo not drawn) [1-2]
	100 to 500	CC(C)(C)c1cc(NC(=O)Nc2cccc3c2CC(O)CC3)no1 (stereo not drawn) [1-2]
	500 to 1000	COc1ccccc1C(=O)Nc1cccc2c1CC(O)CC2 (stereo not drawn) [1-2]
	< 100	O=C(Nc1ccc(Cl)c(C(F)(F)F)c1)Nc1cccc2c1CCC2O (stereo not drawn) [1-3]
	100 to 500	O=C(Nc1cccc2c1CC(O)CC2)NC1CCc2ccccc21 (stereo not drawn) [1-3]
	100 to 500	O=C(Nc1cccc2c1CC(O)CC2)c1ccc(C(F)(F)F)cc1 (stereo not drawn) [1-3]
	500 to 1000	O=C(Cc1cccc(Br)c1)Nc1cccc2c1CC(O)CC2 (stereo not drawn) [1-4]
	100 to 500	O=C(Nc1ccc(Oc2ccncc2)cc1)Nc1cccc2c1CC(O)CC2 (stereo not drawn) [1-4]
	500 to 1000	O=C(NCc1cccnc1)Nc1cccc2c1CC(O)CC2 (stereo not drawn) [1-5]
	500 to 1000	O=C(NCc1ccncc1)Nc1cccc2c1CC(O)CC2 (stereo not drawn) [1-6]
	< 100	O=C(Nc1cccc2c1CC(O)CC2)NC1CCCc2ccccc21 (stereo not drawn) [1-7]
	< 100	O=C(NCc1ccc(-c2csnn2)cc1)Nc1cccc2c1CC(O)CC2 (stereo not drawn) [1-8]
	500 to 1000	CCOC1=CCc2c(cccc2NC(=O)NCc2ccc(C(F)(F)F)cc2)C1 [2-4]
	< 100	O=C1CCc2c(cccc2NC(=O)NCc2ccc(C(F)(F)F)cc2)C1 [2-5]
	< 100	O=C(NCc1ccc(C(F)(F)F)cc1)Nc1cccc2c1CCC(O)C2 (stereo not drawn) [2-6]
	< 100	O=C(Nc1ccc(Cl)c(C(F)(F)F)c1)Nc1cccc2c1CC(O)C(O)C2 (stereo not drawn) [2-7]
	100 to 500	COC1Cc2cccc(NC(=O)Nc3ccc(Cl)c(C(F)(F)F)c3)c2CC1O (stereo not drawn) [2-8]
207 to 209		CC(=O)OC1Cc2cccc(NC(=O)Nc3ccc(Cl)c(C(F)(F)F)c3)c2C1 (stereo not drawn) [Example 1-1, 4-[({[4-Chloro-3-(trifluoromethyl)phenyl]amino}carbonyl)amino]-2,3-dihydro-1H-inden-2-yl acetate]
	500 to 1000	CC(=O)OC1Cc2cccc(NC(=O)Nc3ccc(Cl)c(C(F)(F)F)c3)c2C1 (stereo not drawn) [Example 1-1]
	500 to 1000	O=C(Nc1ccc2c(c1)OCO2)Nc1cccc2c1CC(O)CC2 (stereo not drawn) [Example 1-1]
	100 to 500	O=C(Nc1cccc2c1CC(O)CC2)c1cc2cc(Cl)ccc2[nH]1 (stereo not drawn) [Example 1-1]
166 to 168		CC(=O)OC1Cc2cccc(NC(=O)NCc3ccc(C(F)(F)F)cc3)c2C1 (stereo not drawn) [Example 1-2]
184 to 186		COc1ccccc1C(=O)Nc1cccc2c1CC(O)CC2 (stereo not drawn) [Example 1-2]

melting point [°C]	IC50 (human VR1) [nM]	SMILES
221 to 223		O=C(Nc1ccc(Cl)c(C(F)(F)F)c1)Nc1cccc2c1CCC2O (stereo not drawn) [Example 1-3]
193 to 195		O=C(Nc1cccc2c1CC(O)CC2)NC1CCc2ccccc21 (stereo not drawn) [Example 1-3]
217 to 218		O=C(Nc1cccc2c1CC(O)CC2)c1ccc(C(F)(F)F)cc1 (stereo not drawn) [Example 1-3]
200 to 202		O=C(Nc1ccc(Oc2ccncc2)cc1)Nc1cccc2c1CC(O)CC2 (stereo not drawn) [Example 1-4]
203		O=C(NCc1cccnc1)Nc1cccc2c1CC(O)CC2 (stereo not drawn) [Example 1-5]
243		O=C(NCc1ccncc1)Nc1cccc2c1CC(O)CC2 (stereo not drawn) [Example 1-6]
216		O=C(Nc1cccc2c1CC(O)CC2)NC1CCCc2ccccc21 (stereo not drawn) [Example 1-7]
225		O=C(NCc1ccc(-c2csnn2)cc1)Nc1cccc2c1CC(O)CC2 (stereo not drawn) [Example 1-8]
230	500 to 1000	O=C(NCc1ccccn1)Nc1cccc2c1CC(O)CC2 (stereo not drawn) [Example 1-9]
190	< 100	O=C(NCc1ccc2c(c1)OCO2)Nc1cccc2c1CC(O)CC2 (stereo not drawn) [Example 1-10]
208	< 100	O=C(Nc1cccc(-c2ccncc2)c1)Nc1cccc2c1CC(O)CC2 (stereo not drawn) [Example 1-11]
211 to 212	< 100	O=C(NCc1ccc(C(F)(F)F)nc1)Nc1cccc2c1CC(O)CC2 (stereo not drawn) [Example 1-12]
204 to 205	< 100	Cl.O=C(NCc1ccc(C(F)(F)F)nc1)Nc1cccc2c1CC(O)CC2 (stereo not drawn) [Example 1-13]
216		CCOC1=CCc2c(cccc2NC(=O)Nc2ccc(Cl)c(C(F)(F)F)c2)C1 [Example 2-1, N-[4Chloro-3-(trifluoromethyl)phenyl]-N′-(6-ethoxy-5,8-dihydronaphthalen-1-yl)urea]
219		O=C1CCc2c(cccc2NC(=O)Nc2ccc(Cl)c(C(F)(F)F)c2)C1 [Example 2-2, N-[4-Chloro-3-(trifluoromethyl)phenyl]-N′-(6-oxo-5,6,7,8-tetrahydronaphthalen-1-yl)urea]
	< 100	O=C1CCc2c(cccc2NC(=O)Nc2ccc(Cl)c(C(F)(F)F)c2)C1 [Example 2-2]
216	< 100	O=C(Nc1ccc(Cl)c(C(F)(F)F)c1)Nc1cccc2c1CCC(O)C2 (stereo not drawn) [Example 2-3, N-[4-Chloro-3-(trifluoromethyl)phenyl]-N′-(6-hydroxy-5,6,7,8-tetrahydronaphthalen-1-yl)urea]
235		CCOC1=CCc2c(cccc2NC(=O)NCc2ccc(C(F)(F)F)cc2)C1 [Example 2-4]
221		O=C1CCc2c(cccc2NC(=O)NCc2ccc(C(F)(F)F)cc2)C1 [Example 2-5]
205		O=C(NCc1ccc(C(F)(F)F)cc1)Nc1cccc2c1CCC(O)C2 (stereo not drawn) [Example 2-6]
112 to 127	< 100	COC1Cc2c(cccc2NC(=O)Nc2ccc(Cl)c(C(F)(F)F)c2)CC1O (stereo not drawn) [Example 2-9]
	< 100	CC1CCc2cccc(NC(=O)Nc3ccc(Cl)c(C(F)(F)F)c3)c2C1 (stereo not drawn) [Example 3-1]
	< 100	O=C(Nc1ccc(Cl)c(C(F)(F)F)c1)Nc1cccc2c1CC(CO)CC2 (stereo not drawn) [Example 4-1, N-[4-Chloro-3-(trifluoromethyl)phenyl]-N′-[7-(hydroxymethyl)-5,6,7,8-tetrahydronaphthalen-1-yl]urea]
